How the values were obtained:
Format in all cases: cell-based
[1] = target: T1, type-B natriuretic peptide receptor in immortalized human corneal epithelial (CEPI-17-CL4) cells (Homo sapiens, UniProt P20594); experiment: Antagonism of CNP fragment-induced cGMP production in immortalized human corneal epithelial (CEPI-17-CL4) cells; conditions: mean ± SEM
T1 construct: primary human corneal epithelial cells (P-CEPI) were isolated from human donor eyes; endogenous in cells; host or cells: primary human corneal epithelial cells (P-CEPI) and SV40-immortalized human corneal epithelial cells (CEPI-17-CL4)
T1 sequence (P20594 23-1047): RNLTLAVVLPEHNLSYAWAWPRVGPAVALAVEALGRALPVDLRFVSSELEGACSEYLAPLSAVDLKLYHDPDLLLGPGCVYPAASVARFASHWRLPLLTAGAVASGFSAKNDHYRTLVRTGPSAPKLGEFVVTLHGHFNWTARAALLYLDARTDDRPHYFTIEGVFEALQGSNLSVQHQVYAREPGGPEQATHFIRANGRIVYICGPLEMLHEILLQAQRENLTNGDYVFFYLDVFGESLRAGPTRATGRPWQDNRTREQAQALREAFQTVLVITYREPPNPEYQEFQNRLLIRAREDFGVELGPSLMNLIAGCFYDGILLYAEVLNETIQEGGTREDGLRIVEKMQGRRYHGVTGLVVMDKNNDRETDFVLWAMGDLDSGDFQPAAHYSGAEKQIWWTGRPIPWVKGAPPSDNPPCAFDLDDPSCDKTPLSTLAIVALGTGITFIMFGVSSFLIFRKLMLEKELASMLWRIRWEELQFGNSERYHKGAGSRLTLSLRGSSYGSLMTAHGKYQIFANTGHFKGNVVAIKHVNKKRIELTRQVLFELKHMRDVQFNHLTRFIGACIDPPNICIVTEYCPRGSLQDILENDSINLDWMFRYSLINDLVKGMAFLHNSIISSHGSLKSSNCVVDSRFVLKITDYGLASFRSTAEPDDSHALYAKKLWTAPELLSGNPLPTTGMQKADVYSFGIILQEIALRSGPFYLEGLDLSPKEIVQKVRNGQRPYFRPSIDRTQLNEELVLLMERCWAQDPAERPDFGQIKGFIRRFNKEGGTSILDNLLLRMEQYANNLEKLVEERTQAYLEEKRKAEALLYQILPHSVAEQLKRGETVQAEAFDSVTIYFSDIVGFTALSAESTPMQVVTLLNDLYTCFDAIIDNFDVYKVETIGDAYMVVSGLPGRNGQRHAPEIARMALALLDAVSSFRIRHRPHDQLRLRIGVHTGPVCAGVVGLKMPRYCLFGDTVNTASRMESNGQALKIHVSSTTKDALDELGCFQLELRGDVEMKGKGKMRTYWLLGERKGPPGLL

[2] = target: T2, Type-B natriuretic peptide receptor in human corneal epithelial cells (Homo sapiens, UniProt P20594); experiment: Natriuretic peptide-stimulated cGMP production (guanylyl cyclase activity, EIA) in human corneal epithelial cells; conditions: cGMP production via type-B receptor
T2 construct: primary human corneal epithelial cells (P-CEPI) were isolated from human donor eyes; endogenous in cells; host or cells: primary human corneal epithelial cells (P-CEPI) and SV40-immortalized human corneal epithelial cells (CEPI-17-CL4)
T2 sequence (P20594 23-1047): T1 sequence (P20594 23-1047)
Method: Thus, primary human corneal epithelial cells (P-CEPI) were isolated from human donor eyes ≦24 hr postmortem and were cultured in EpiLife medium (Cascade Biologics, Portland, Oreg.) containing 1% human corneal growth supplement, 100 u/ml penicillin G, 100 mg/ml streptomycin sulfate. Culture plates were coated with fibronectin to help the cells adhere to the bottom of the plates. […]
In brief, compounds of interest were diluted in ethanol so that the final ethanol concentration was 1%, a concentration well tolerated by the cells. […] Finally, ice-cold 0.1 M sodium acetate (220 ml, pH 11.5-12.0) was added to neutralize the samples before analysis of cGMP by an enzyme immunoassay (EIA) kit. cGMP production in the cells was measured using the EIA kit purchased from Amersham Pharmacia Biotech (Piscataway, N.J.). […] Data were analyzed using a non-linear, iterative curve-fitting computer program (IDBS, Surrey, UK) and Origin software package (Microcal Software, Inc., Northampton, Mass.) (Sharif et al. 1996; Crider et al. 2003). […]

[3] = target: T3, Type-A natriuretic peptide receptor in human conjunctival epithelial cells (Chang cells) (Homo sapiens, UniProt P16066); experiment: Natriuretic peptide-stimulated cGMP production (guanylyl cyclase activity, EIA) in human conjunctival epithelial cells (Chang cells); conditions: for Agonist character in words: cGMP production; for Intrinsic Activity (Emax; % Max. Response): cGMP production via type-A receptor
T3 construct: the most relevant cells are Chang cells (Clone 1-5C-4 Wong-Kilbourne Derivative); These cells were obtained from ATCC; host or cells: Chang cells (Clone 1-5C-4 Wong-Kilbourne Derivative), human conjunctival epithelial cells
T3 sequence (P16066 33-1061): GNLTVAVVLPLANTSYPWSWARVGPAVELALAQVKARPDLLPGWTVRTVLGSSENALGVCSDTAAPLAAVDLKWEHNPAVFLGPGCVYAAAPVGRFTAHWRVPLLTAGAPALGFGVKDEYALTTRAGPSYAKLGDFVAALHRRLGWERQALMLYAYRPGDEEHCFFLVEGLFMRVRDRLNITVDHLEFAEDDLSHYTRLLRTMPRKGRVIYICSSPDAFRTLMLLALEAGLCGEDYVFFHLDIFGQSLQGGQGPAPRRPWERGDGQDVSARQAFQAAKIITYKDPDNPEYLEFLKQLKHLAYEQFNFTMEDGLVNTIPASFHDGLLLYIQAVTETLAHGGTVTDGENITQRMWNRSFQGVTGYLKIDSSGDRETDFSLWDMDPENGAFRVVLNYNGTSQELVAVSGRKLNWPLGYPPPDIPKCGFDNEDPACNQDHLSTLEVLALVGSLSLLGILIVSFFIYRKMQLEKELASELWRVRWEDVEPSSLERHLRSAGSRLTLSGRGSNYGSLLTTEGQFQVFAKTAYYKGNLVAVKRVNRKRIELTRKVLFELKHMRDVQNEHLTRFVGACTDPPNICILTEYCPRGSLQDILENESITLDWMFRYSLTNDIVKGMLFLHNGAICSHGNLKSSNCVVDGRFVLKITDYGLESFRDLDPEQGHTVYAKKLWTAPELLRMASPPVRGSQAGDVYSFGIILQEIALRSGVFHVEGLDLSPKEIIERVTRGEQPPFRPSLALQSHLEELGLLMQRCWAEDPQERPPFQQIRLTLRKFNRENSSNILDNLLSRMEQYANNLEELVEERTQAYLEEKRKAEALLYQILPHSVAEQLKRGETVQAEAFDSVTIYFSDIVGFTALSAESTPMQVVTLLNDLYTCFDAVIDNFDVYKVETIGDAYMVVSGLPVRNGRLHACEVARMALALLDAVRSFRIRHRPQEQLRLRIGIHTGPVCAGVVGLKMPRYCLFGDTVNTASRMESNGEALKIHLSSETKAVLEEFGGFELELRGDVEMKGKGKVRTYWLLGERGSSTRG
Method: These cells were obtained from ATCC (Manassas, Va.) and cultured in medium 199, containing 10% fetal bovine serum and […] Gentamicin. (obtained from Gibco/Invitrogen; Carlsbad, Calif.).
Cells were seeded in 48-wells culture plates. On reaching confluence, the cells were rinsed twice with 0.5 ml Dulbeco's modified Eagle's medium (DMEM)/F-12. […] Natriuretic peptides (American Peptide Co. Inc., Sunnyvale, Calif.; Peninsula Labs. San Carlos, Calif.) were then added at the end of this period and the reaction was allowed to proceed for another 15 minutes at 23° C. After aspiration of the reaction medium, ice cold 0.1 M acetic acid ([…], pH 3.5) was added for the termination of cGMP synthesis and cell lysis. Finally, ice-cold 0.1 M sodium acetate ([…], pH 11.5-12.0) was added to neutralize the samples before analysis of cGMP by an enzyme immunoassay (EIA) kit. cGMP production in the cells was measured using the EIA kit purchased from Amersham Pharmacia Biotech (Piscataway, N.J.). This assay was conducted according to the package insert in an automated manner using a robotic workstation (Biomek 2000; Beckman Instrument, Fullerton, Calif.) (Sharif et al. Characterization of the ocular anti-allergic and anti-histaminic effects of Olopatadine (AL-4943A), a novel drug for treating ocular allergic diseases. J. Pharmacology & Experimental Therapeutics 278, 1251-1260, 1996; Crider et al. Pharmacological characterization of serotonin receptor (5HT7) stimulating cAMP production in human corneal epithelial cells. Invest. Ophthalmol. Vis. Sci. 44: 4837-4844, 2003). Data were analyzed using a non-linear, iterative curve-fitting computer program (IDBS, Surrey, UK) and Origin software package (Microcal Software, Inc., Northampton, Mass.) (Sharif et al. 1996; Crider et al. 2003).

| Compound | Ki [1] [µM] | Intrinsic Activity (Emax; % Max. Response) [2] [%] | Agonist character in words [3] | Intrinsic Activity (Emax; % Max. Response) [3] [%] |
| --- | --- | --- | --- | --- |
| O=C1Nc2ccccc2C1=O [isatin] | 18 ± 4 |  |  |  |
| C-type natriuretic peptide [CNP] |  | 100 | weak partial agonist | 26 |
| brain natriuretic peptide [BNP] |  | 50.2 | potent full agonists | 94 |

— patent US20090181896A1, “Use of Natriuretic Peptide Receptor Antagonists to Treat Ocular, Otic and Nasal Edemetous Conditions” (ALCON RESEARCH, LTD., priority 2006, published 2009)
